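Following 48 hours of exposure in 96-well plates, responses at five concentrations were used to interpolate endpoints linearly. GI50 marks 50% less growth.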 Activity calls are given as the source filed them. Cut-off read from the data, not from the text of the source: active = GI50 up to about 1.1 µM and inactive = higher.
Tests used:
Experiment in all cases: inhibition of tumour cell growth, NCI panel, 48 h
KM12 = tested on: KM12
UACC-257 = tested on: UACC-257
HCT-15 = tested on: HCT-15
OVCAR-3 = tested on: OVCAR-3
SNB-19 = tested on: SNB-19
SK-MEL-2 = tested on: SK-MEL-2
TK-10 = tested on: TK-10
OVCAR-4 = tested on: OVCAR-4
RXF 393 = tested on: RXF 393
NCI-H23 = tested on: NCI-H23
NCI-H460 = tested on: NCI-H460
CAKI-1 = tested on: CAKI-1
Malme-3M = tested on: Malme-3M
UO-31 = tested on: UO-31
NCI-H522 = tested on: NCI-H522
786-0 = tested on: 786-0

SMILES	GI50 (KM12)	GI50 (UACC-257)	GI50 (HCT-15) [µM]	GI50 (OVCAR-3)	GI50 (SNB-19)	GI50 (SK-MEL-2)	GI50 (TK-10)	GI50 (OVCAR-4)	GI50 (RXF 393)	GI50 (NCI-H23)	GI50 (NCI-H460)	GI50 (CAKI-1)	GI50 (Malme-3M)	GI50 (UO-31)	GI50 (NCI-H522)	GI50 (786-0)
COC1=C(Br)C(=O)c2nc(C)ccc2C1=O	17.7 µM (inactive)	13.6 µM (inactive)	14.1	7.46 µM (inactive)	> 40.9 µM (inactive)	16.2 µM (inactive)	18.4 µM (inactive)	13.3 µM (inactive)	11.2 µM (inactive)	12.7 µM (inactive)	15.8 µM (inactive)	15.6 µM (inactive)	16.8 µM (inactive)	18.5 µM (inactive)	6.97 µM (inactive)	14.1 µM (inactive)
O=C(N/N=C(/c1nc2ccc(Cl)cc2[nH]c1=O)C(O)c1ccc(Cl)cc1Cl)c1ccncc1 (centres undefined)	> 100 µM (inactive)	> 100 µM (inactive)	> 100	> 100 µM (inactive)	> 100 µM (inactive)	> 100 µM (inactive)	> 100 µM (inactive)		> 100 µM (inactive)	> 100 µM (inactive)	> 100 µM (inactive)	> 100 µM (inactive)	> 100 µM (inactive)	> 100 µM (inactive)		> 100 µM (inactive)
Cc1ccc(C)c(NC(=O)CCc2nnc(S)[nH]2)c1	> 100 µM (inactive)	> 100 µM (inactive)	44.2	> 100 µM (inactive)	> 100 µM (inactive)	> 100 µM (inactive)	> 100 µM (inactive)	> 100 µM (inactive)	> 100 µM (inactive)	> 100 µM (inactive)	> 100 µM (inactive)	> 100 µM (inactive)	> 100 µM (inactive)	> 100 µM (inactive)	> 100 µM (inactive)	> 100 µM (inactive)
Cc1cccc(C)c1NC(=O)C(=O)CC(=O)c1cccc([N+](=O)[O-])c1	> 100 µM (inactive)	> 100 µM (inactive)	> 100	> 100 µM (inactive)	> 100 µM (inactive)	> 100 µM (inactive)	> 100 µM (inactive)	> 100 µM (inactive)		> 100 µM (inactive)	> 100 µM (inactive)	> 100 µM (inactive)	> 100 µM (inactive)	> 100 µM (inactive)	> 100 µM (inactive)	> 100 µM (inactive)
COc1ccc(C2c3cc4c(cc3OC(O)(CO)C2C(=O)O)OCO4)c(OC)c1OC.COc1ccc(C2c3cc4c(cc3OC3(O)COC(=O)C23)OCO4)c(OC)c1OC (centres undefined)		> 100 µM (inactive)	> 100	> 100 µM (inactive)	> 100 µM (inactive)	> 100 µM (inactive)	> 100 µM (inactive)	> 100 µM (inactive)	74 µM (inactive)	> 100 µM (inactive)	> 100 µM (inactive)	65.8 µM (inactive)	> 100 µM (inactive)	> 100 µM (inactive)		> 100 µM (inactive)
COc1ccc(CC(=O)c2cc(OC)c(OC)cc2C)cc1OC	> 100 µM (inactive)	21.3 µM (inactive)	46.5	77.6 µM (inactive)	68.4 µM (inactive)	> 100 µM (inactive)	> 100 µM (inactive)	29.3 µM (inactive)		20.5 µM (inactive)	> 100 µM (inactive)	> 100 µM (inactive)	> 100 µM (inactive)	18.2 µM (inactive)	38 µM (inactive)	> 100 µM (inactive)
Cc1ccc(S(=O)(=O)c2ccc(NC(=O)SCCC(=O)O)cc2)cc1	> 100 µM (inactive)	> 100 µM (inactive)	> 100	> 100 µM (inactive)	> 100 µM (inactive)	> 100 µM (inactive)	> 100 µM (inactive)	> 100 µM (inactive)	> 100 µM (inactive)	> 100 µM (inactive)	> 100 µM (inactive)	> 100 µM (inactive)		> 100 µM (inactive)	> 100 µM (inactive)	> 100 µM (inactive)
NC(=S)N/N=C(\C(=O)Nc1cccc([N+](=O)[O-])c1)c1nc2ccc([N+](=O)[O-])cc2nc1O	40.6 µM (inactive)	7.8 µM (inactive)	29.4		> 100 µM (inactive)	> 100 µM (inactive)	> 100 µM (inactive)	> 100 µM (inactive)	> 100 µM (inactive)	> 100 µM (inactive)	74.6 µM (inactive)		> 100 µM (inactive)	> 100 µM (inactive)	3.85 µM (inactive)	> 100 µM (inactive)
Cn1ncc2c(c1=O)Nc1ccccc1S2(=O)=O	> 100 µM (inactive)	> 100 µM (inactive)	> 100	> 100 µM (inactive)	> 100 µM (inactive)	> 100 µM (inactive)	> 100 µM (inactive)	> 100 µM (inactive)		> 100 µM (inactive)	> 100 µM (inactive)	> 100 µM (inactive)	> 100 µM (inactive)	> 100 µM (inactive)	> 100 µM (inactive)	28.4 µM (inactive)

From ChEMBL document CHEMBL1201862, “PubChem BioAssay data set” (2004)
